Experimental data as given in ChEMBL document CHEMBL5500360, “Discovery of N-(4-((6-(3,5- Dimethoxyphenyl)-9H-purine derivatives as irreversible covalent FGFR inhibitors” (Eur J Med Chem, 2024).
Calls of active or inactive are those of the source. The calls are words filed in the database; no cut-off is given here.

How the values were obtained:
[1] = molecular target: Fibroblast growth factor receptor 2 (Homo sapiens, UniProt P21802); experiment: Inhibition of FGFR2 (unknown origin) by ELISA
[2] = molecular target: Fibroblast growth factor receptor 3 (Homo sapiens, UniProt P22607); experiment: Inhibition of FGFR3 (unknown origin) by ELISA
Sequence of Fibroblast growth factor receptor 3 (P22607 whole entry): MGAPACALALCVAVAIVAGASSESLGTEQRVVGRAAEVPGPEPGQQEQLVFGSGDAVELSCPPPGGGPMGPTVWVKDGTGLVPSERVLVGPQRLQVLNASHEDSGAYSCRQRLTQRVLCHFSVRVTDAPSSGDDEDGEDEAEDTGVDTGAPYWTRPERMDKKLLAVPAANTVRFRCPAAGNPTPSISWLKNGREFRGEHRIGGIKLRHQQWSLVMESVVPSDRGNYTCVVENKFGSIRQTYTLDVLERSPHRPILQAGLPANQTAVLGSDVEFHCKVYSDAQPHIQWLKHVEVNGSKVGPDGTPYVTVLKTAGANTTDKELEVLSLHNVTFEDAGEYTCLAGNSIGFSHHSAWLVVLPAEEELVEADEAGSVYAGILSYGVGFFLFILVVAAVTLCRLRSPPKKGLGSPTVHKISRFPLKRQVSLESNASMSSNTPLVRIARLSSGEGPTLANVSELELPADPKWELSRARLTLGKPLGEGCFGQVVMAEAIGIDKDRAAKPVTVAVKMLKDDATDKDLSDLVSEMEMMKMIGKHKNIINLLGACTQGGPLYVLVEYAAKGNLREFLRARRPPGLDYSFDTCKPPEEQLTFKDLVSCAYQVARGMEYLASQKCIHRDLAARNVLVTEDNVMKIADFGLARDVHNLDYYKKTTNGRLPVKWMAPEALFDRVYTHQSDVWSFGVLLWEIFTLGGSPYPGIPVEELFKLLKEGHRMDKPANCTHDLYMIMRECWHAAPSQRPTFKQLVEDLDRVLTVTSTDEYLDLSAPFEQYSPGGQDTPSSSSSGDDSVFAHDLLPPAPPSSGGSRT

[3] = system: MDA-MB-231; experiment: Cell cycle arrest in human MDA-MB-231 cells assessed as accumulation of G0-G1 phase cells at 2.5 uM incubated for 24 hrs by […]PI staining based flow cytometric analysis (reference value: 41.83%); format: functional
[4] = system: MDA-MB-231; experiment: Cell cycle arrest in human MDA-MB-231 cells assessed as accumulation of G0-G1 phase cells at 5 uM incubated for 24 hrs by […]PI staining based flow cytometric analysis (reference value: 41.83%); format: functional
[5] = system: MDA-MB-231; experiment: Cell cycle arrest in human MDA-MB-231 cells assessed as accumulation of G2-M phase cells at 5 uM incubated for 24 hrs by […]PI staining based flow cytometric analysis (reference value: 16.88%); format: functional
[6] = system: MDA-MB-231; experiment: Cell cycle arrest in human MDA-MB-231 cells assessed as accumulation of G0-G1 phase cells at 10 uM incubated for 24 hrs by […]PI staining based flow cytometric analysis (reference value: 41.83%); format: functional
[7] = system: MDA-MB-231; experiment: Cell cycle arrest in human MDA-MB-231 cells assessed as accumulation of G2-M phase cells at 10 uM incubated for 24 hrs by […]PI staining based flow cytometric analysis (reference value: 16.88%); format: functional
[8] = system: MDA-MB-231; experiment: Induction of apoptosis in human MDA-MB-231 cells assessed as viable cells at 2.5 uM incubated for 24 hrs by Annexin V-FITC/PI staining based flow cytometric analysis (reference value: 99.645%); format: functional; settings: read-out: Activity
[9] = system: MDA-MB-231; experiment: Induction of apoptosis in human MDA-MB-231 cells assessed as early apoptotic cells at 2.5 uM incubated for 24 hrs by Annexin V-FITC/PI staining based flow cytometric analysis (reference value: 0.131 %); format: functional
[10] = system: MDA-MB-231; experiment: Induction of apoptosis in human MDA-MB-231 cells assessed as necrotic cells at 2.5 uM incubated for 24 hrs by Annexin V-FITC/PI staining based flow cytometric analysis (reference value: 0.063 %); format: functional
[11] = system: MDA-MB-231; experiment: Induction of apoptosis in human MDA-MB-231 cells assessed as late apoptotic cells at 5 uM incubated for 24 hrs by Annexin V-FITC/PI staining based flow cytometric analysis (reference value: 0.161 %); format: functional
[12] = system: MDA-MB-231; experiment: Induction of apoptosis in human MDA-MB-231 cells assessed as early apoptotic cells at 10 uM incubated for 24 hrs by Annexin V-FITC/PI staining based flow cytometric analysis (reference value: 0.131 %); format: functional
[13] = system: MDA-MB-231; experiment: Induction of apoptosis in human MDA-MB-231 cells assessed as necrotic cells at 10 uM incubated for 24 hrs by Annexin V-FITC/PI staining based flow cytometric analysis (reference value: 0.063 %); format: functional
[14] = system: MDA-MB-231; experiment: Induction of apoptosis in human MDA-MB-231 cells assessed as apoptotic cells at 10 uM incubated for 24 hrs by Annexin V-FITC/PI staining based flow cytometric analysis relative to control; format: functional
[15] = system: MDA-MB-231; experiment: Induction of apoptosis in human MDA-MB-231 cells assessed as apoptotic cells at 5 uM incubated for 24 hrs by Annexin V-FITC/PI staining based flow cytometric analysis relative to control; format: functional
[16] = system: MDA-MB-231; experiment: Inhibition of cell migration in human MDA-MB-231 cells at 5 uM incubated for 12 hrs by cell scratch assay relative to control; format: functional
[17] = system: MDA-MB-231; experiment: Induction of apoptosis in human MDA-MB-231 cells assessed as increase in cleaved-PARP protein expression incubated for 24 hrs by Western blot analysis; format: functional, cell-based; settings: dose 2.5-10 µM
[18] = system: MDA-MB-231; experiment: Induction of apoptosis in human MDA-MB-231 cells assessed as increase in Bax protein expression incubated for 24 hrs by Western blot analysis; format: functional, cell-based; settings: dose 2.5-10 µM
[19] = system: MDA-MB-231; experiment: Effect on PLCgamma protein expression in human MDA-MB-231 cells at 5 to 10 uM incubated for 24 hrs by Western blot analysis; format: functional, cell-based; settings: dose 5-10 µM
[20] = Metabolic stability in human liver microsomes assessed as parent compound remaining at 1 uM measured after 5 mins by LC-MS/MS analysis; format: ADME, Microsome; settings: read-out: Stability
[21] = Metabolic stability in human liver microsomes assessed as parent compound remaining at 1 uM measured after 15 mins by LC-MS/MS analysis; format: ADME, Microsome; settings: read-out: Stability
[22] = Metabolic stability in human liver microsomes assessed as parent compound remaining at 1 uM measured after 45 mins by LC-MS/MS analysis; format: ADME, Microsome; settings: read-out: Stability
[23] = Metabolic stability in rat liver microsomes assessed as parent compound remaining at 1 uM measured after 15 mins by LC-MS/MS analysis; format: ADME, Microsome; settings: read-out: Stability
[24] = Metabolic stability in mouse liver microsomes assessed as parent compound remaining at 1 uM measured after 5 mins by LC-MS/MS analysis; format: ADME, Microsome; settings: read-out: Stability
[25] = Metabolic stability in mouse liver microsomes assessed as parent compound remaining at 1 uM measured after 30 mins by LC-MS/MS analysis; format: ADME, Microsome; settings: read-out: Stability
[26] = Metabolic stability in mouse liver microsomes assessed as parent compound remaining at 1 uM measured after 45 mins by LC-MS/MS analysis; format: ADME, Microsome; settings: read-out: Stability
[27] = Metabolic stability in human liver microsomes assessed as half-life at 1 uM incubated for 45 mins by LC-MS/MS analysis; format: ADME, Microsome
[28] = Metabolic stability in rat liver microsomes assessed as half-life at 1 uM incubated for 45 mins by LC-MS/MS analysis; format: ADME, Microsome
[29] = Metabolic stability in rat liver microsomes assessed as intrinsic clearance at 1 uM incubated for 45 mins by LC-MS/MS analysis; format: ADME, Microsome; settings: read-out: CLH
[30] = Metabolic stability in mouse liver microsomes assessed as half-life at 1 uM incubated for 45 mins by LC-MS/MS analysis; format: ADME, Microsome
[31] = Metabolic stability in mouse liver microsomes assessed as intrinsic clearance at 1 uM incubated for 45 mins by LC-MS/MS analysis; format: ADME, Microsome; settings: read-out: CLH
[32] = system: MDA-MB-231; experiment: Antitumor activity against human MDA-MB-231 cells xenografted in female BALB/c athymic nude mouse assessed as tumor growth inhibition at 20 mg/kg, po administered once a day via gavage for 21 days relative to control; format: functional; settings: MDA-MB-231, 504 h, time 21 day, read-out: TGI
[33] = Toxicity in BALB/c athymic nude mouse xenografted with human MDA-MB-231 cells assessed as effect on heart at 10 to 30 mg/kg, po administered once a day via gavage for 21 days by H and E staining based analysis; format: organism-based; settings: in vivo, 504 h, dose 10-30 mg/kg, time 21 day
[34] = Toxicity in BALB/c athymic nude mouse xenografted with human MDA-MB-231 cells assessed as effect on spleen at 10 to 30 mg/kg, po administered once a day via gavage for 21 days by H and E staining based analysis; format: organism-based; settings: in vivo, 504 h, dose 10-30 mg/kg, time 21 day
[35] = system: MDA-MB-435; experiment: cells; settings: Homo sapiens, MDA-MB-435, 72 h
Description: Antiproliferative activity against human MDA-MB-435 cells assessed as inhibition of cell growth incubated for 72 hrs by MTT assay

[36] = system: HepG2; experiment: cells; settings: Homo sapiens, HepG2, 72 h

Sequence of Fibroblast growth factor receptor 2 (P21802 whole entry): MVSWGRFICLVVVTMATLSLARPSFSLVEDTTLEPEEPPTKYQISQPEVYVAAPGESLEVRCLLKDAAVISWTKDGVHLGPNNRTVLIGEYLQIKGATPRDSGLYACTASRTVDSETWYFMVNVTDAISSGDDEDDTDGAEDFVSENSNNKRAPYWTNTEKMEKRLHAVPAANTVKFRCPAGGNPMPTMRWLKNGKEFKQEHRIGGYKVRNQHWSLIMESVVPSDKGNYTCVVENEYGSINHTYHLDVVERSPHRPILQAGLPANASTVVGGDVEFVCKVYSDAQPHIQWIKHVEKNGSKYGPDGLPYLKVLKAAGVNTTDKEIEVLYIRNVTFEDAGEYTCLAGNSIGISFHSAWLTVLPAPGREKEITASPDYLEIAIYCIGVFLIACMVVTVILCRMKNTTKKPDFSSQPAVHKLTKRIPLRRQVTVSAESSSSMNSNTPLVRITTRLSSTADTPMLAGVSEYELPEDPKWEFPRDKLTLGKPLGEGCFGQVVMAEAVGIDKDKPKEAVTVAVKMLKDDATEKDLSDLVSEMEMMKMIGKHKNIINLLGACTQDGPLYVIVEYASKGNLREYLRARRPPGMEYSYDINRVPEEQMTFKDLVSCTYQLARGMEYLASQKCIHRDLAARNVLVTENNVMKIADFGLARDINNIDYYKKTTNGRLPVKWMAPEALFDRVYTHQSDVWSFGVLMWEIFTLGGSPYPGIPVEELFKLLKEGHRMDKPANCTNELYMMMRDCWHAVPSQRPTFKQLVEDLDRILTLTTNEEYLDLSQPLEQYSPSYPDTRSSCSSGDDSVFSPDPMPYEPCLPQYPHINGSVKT

**Q.** Which results are given for `C=CC(=O)Nc1ccc(Cn2cnc3c(-c4cc(OC)cc(OC)c4)ncnc32)cc1`?
**A.** IC50 [1]: 0.00089 µM; IC50 [2]: 0.00064 µM; Activity [3]: 50.81%; Activity [4]: 66.5%; Activity [5]: 10.68%; Activity [6]: 73.78%; Activity [7]: 15.49%; viability at 2.5 µM [8]: 64.9%; Activity [9]: 26.3%; Activity [10]: 2.66%; Activity [11]: 14.25%; Activity [12]: 45.4%; Activity [13]: 1.66%; Activity [14]: 56.8%; Activity [15]: 45.4%; inhibition at 5 µM [16]: 82%; Activity [17]: Dose-Dependent Effect; Activity [18]: Dose-Dependent Effect; Activity [19]: inactive; remaining at 5 min, 1 µM [20]: 85%; remaining at 0.25 h, 1 µM [21]: 63.5%; remaining at 0.75 h, 1 µM [22]: 33.8%; remaining at 0.25 h, 1 µM [23]: 40%; remaining at 5 min, 1 µM [24]: 61.5%; remaining at 0.5 h, 1 µM [25]: 8.63%; remaining at 0.75 h, 1 µM [26]: 3.58%; half-life at 1 µM [27]: 41.4 min; half-life at 1 µM [28]: 15.9 min; CLint scaled at 1 µM [29]: 156 mL/min/kg; half-life at 1 µM [30]: 12.9 min; CLint scaled at 1 µM [31]: 424 mL/min/kg; inhibition in vivo at 20 mg/kg [32]: 64.2%; Activity [33]: Non-Toxic; Activity [34]: Non-Toxic; IC50 [35]: 9.17 µM; IC50 [36]: 7.93 µM
